Assay [1] has as its target T1, Coagulation factor XII (Homo sapiens, UniProt P00748).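 Note: activated factor XIIa alpha cleaving a fluorogenic AMC peptide substrate; inhibitor potency from loss of enzyme activity.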
T1 sequence (P00748 whole entry): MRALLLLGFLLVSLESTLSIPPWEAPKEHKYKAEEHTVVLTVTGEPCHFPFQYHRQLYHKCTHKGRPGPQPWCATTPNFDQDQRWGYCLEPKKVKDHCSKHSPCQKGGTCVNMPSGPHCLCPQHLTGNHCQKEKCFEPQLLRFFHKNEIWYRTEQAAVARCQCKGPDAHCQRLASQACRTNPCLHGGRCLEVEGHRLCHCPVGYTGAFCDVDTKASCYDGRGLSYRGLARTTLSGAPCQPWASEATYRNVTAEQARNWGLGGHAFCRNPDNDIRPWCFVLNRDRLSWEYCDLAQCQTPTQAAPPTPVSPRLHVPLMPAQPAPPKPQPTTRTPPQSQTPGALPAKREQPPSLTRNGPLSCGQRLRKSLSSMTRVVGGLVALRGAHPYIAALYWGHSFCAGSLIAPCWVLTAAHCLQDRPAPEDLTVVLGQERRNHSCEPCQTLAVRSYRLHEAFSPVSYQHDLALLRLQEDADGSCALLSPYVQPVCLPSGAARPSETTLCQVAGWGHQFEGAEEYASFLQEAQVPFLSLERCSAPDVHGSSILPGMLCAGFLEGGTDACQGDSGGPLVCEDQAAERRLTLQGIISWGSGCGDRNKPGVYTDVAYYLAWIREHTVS
It counts as functional.

Assay [2] is described as follows: cAMP pathway inhibition in counterscreen cell line – TR-FRET cAMP detection, counter-screen for MC4R biased antagonist project, dose response (AID 602305).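 Note: U2OS cells stimulated with forskolin near its EC80 as the cAMP inducer; potency is for inhibition of forskolin-stimulated cAMP signaling.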 It counts as functional, cell-based. In general terms: A counterscreen serves to expose hits that act by an unwanted route or on another target.
The target of assay [3] is Melanocortin receptor 4 (Homo sapiens, UniProt P32245). In words: inhibitors of MC4R cAMP signaling – cell-based, TR-FRET, biased antagonists, dose response (AID 602298).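 Note: antagonist potency against agonist-stimulated cAMP production.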 It counts as functional. (In TR-FRET formats the signal depends on donor and acceptor labels being close together.)
Melanocortin receptor 4, sequence (P32245 whole entry): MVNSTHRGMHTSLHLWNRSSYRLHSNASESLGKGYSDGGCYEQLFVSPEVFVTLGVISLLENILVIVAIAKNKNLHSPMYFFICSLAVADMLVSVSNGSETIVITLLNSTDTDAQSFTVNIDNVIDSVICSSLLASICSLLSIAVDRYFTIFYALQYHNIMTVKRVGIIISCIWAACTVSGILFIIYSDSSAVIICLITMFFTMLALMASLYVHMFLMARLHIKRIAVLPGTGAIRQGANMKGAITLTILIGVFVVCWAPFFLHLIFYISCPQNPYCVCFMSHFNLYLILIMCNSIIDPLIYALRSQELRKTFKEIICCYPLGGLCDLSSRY
Assay [4] concerns the target Prothrombin (Bos taurus, UniProt P00735). Nature of the assay: thrombin protease inhibitors – biochemical, fluorescence polarization, uHTS hits, dose response (AID 602369). It counts as functional.
The target in assay [5] is Beta Lactamase (Pseudomonas aeruginosa, UniProt Q932Y6). In words: BLA reporter interference, concentration series – BLA reporter cells, FRET fluorescence, artefact control for TLR9-MyD88 binding inhibitor project, dose response (AID 588341).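 Note: cell based assay in CHO-K1 cells stably expressing beta-lactamase.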 It counts as cell-based.
Beta Lactamase, sequence (Q932Y6 whole entry): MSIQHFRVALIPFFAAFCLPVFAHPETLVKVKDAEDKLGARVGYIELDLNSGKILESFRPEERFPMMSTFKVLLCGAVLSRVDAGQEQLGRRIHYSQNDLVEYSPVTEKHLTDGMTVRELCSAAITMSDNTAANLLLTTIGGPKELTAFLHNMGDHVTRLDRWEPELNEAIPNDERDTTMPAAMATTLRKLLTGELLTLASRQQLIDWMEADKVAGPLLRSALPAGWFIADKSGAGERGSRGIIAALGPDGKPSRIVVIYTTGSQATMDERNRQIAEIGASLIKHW
For assay [6], the target named is 72 kDa type IV collagenase (Homo sapiens, UniProt P08253). Nature of the assay: Dose Response validation of uHTS RPN11 inhibitor hits using a MMP-2 Fluorescence assay. It counts as functional.
72 kDa type IV collagenase, sequence (P08253 whole entry, the tested form may be a part): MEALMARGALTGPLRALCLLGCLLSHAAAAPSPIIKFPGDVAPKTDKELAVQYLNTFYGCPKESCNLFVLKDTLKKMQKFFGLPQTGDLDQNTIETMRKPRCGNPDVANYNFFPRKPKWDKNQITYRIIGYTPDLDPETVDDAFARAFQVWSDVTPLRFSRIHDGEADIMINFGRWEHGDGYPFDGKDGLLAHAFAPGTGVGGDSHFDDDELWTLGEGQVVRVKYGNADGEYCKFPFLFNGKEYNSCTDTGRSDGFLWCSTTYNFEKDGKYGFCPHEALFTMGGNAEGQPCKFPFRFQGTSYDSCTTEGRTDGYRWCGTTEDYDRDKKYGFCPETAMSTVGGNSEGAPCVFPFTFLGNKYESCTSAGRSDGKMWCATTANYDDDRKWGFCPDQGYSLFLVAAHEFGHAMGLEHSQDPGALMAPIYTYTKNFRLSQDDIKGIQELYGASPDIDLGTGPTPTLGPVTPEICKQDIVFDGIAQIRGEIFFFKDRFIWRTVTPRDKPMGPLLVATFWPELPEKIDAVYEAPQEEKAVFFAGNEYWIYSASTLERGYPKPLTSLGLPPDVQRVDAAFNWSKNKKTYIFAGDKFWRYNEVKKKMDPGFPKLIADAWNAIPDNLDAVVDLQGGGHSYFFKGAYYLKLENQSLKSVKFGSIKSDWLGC
The test system of assay [7] is CHO. In words: CHO cell viability loss, potency – luminescence, cytotoxicity control for TLR9-MyD88 binding inhibitor project, dose response (AID 588339).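 Note: CHO cells stably coexpressing TLR9 and MyD88 fusions from primary screen; compound exposure lasted 48 hours before viability readout.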 It counts as functional, cell-based, hamster. Conditions: Cricetulus griseus.
The target in assay [8] is 26S proteasome non-ATPase regulatory subunit 14 (Homo sapiens, UniProt O00487). In words: inhibition of proteasome subunit RPN11 – biochemical, fluorescence polarization, uHTS hits, confirmation (AID 602368). It counts as functional. (In fluorescence polarisation assays a small probe gives low polarisation when free and higher when bound to something large.)
26S proteasome non-ATPase regulatory subunit 14, sequence (O00487 whole entry): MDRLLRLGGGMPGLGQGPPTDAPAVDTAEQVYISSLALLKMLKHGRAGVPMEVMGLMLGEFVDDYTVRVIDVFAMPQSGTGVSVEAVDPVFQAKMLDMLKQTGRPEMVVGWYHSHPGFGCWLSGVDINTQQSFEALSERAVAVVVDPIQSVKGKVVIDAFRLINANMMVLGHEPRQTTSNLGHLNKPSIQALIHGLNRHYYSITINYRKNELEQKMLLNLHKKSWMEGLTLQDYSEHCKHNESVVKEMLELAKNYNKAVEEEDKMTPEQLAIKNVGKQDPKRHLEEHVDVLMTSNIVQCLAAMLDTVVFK
Assay [9] addresses T2, High affinity choline transporter 1 (Homo sapiens, UniProt Q9GZV3).
T2 sequence (Q9GZV3 whole entry): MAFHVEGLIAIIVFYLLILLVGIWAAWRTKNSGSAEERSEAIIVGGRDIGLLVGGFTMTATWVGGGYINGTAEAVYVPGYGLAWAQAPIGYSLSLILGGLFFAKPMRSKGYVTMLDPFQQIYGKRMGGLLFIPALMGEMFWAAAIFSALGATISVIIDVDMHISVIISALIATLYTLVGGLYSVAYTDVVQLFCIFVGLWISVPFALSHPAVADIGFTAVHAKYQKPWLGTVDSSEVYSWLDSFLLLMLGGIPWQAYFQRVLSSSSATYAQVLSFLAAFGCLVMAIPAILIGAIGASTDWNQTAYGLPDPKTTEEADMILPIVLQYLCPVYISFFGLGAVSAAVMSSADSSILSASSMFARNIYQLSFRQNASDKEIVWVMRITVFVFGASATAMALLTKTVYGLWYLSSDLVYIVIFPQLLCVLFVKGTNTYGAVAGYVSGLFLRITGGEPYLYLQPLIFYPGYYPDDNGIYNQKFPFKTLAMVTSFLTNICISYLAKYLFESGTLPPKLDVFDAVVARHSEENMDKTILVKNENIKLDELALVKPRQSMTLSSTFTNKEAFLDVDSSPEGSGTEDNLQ
In words: human choline transporter blockers, potency – cell-based, 5-point CRC, membrane potential dye, dose response (AID 504840). It counts as functional.

The target in assay [10] is T2, High affinity choline transporter 1. In words: human choline transporter blockers, potency – cell-based, 10-point CRC, membrane potential dye, dose response (AID 588401).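 Note: membrane potential dye fluorescence of choline-evoked depolarization via CHT.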 It counts as functional.
The nature of assay [11]: viability loss in HEK293T cells – cell-based, cherry-picks, cytotoxicity control for HIV Vif inhibitor project, dose response (AID 652208). It counts as functional.
The target of assay [12] is T3, RNA-binding protein pos-1 (Caenorhabditis elegans, UniProt G5EF15).
T3 sequence (G5EF15 whole entry): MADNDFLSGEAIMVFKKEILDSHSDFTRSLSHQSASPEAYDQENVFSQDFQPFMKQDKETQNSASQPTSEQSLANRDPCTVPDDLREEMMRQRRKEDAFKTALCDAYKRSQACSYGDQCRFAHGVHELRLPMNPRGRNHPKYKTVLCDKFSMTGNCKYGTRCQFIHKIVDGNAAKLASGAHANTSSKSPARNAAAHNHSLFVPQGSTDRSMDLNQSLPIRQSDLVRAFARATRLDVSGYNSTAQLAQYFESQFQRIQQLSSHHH
Nature of the assay: disruptors of C. elegans POS-1 RNA interaction – biochemical, fluorescence polarization, dose response (AID 1964).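 Note: purified POS-1 fused to maltose binding protein made in E. coli; potency of compounds blocking POS-1 binding to fluorescent RNA.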

Assay [13] concerns Streptococcus. In words: GAS UMAA2166 growth inhibition – luminescence, BacTiterGlo, counter-screen for streptokinase expression inhibitor project, dose response (AID 1915).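 Note: potency for reduction of bacterial viability or growth.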 It counts as functional, organism-based.
Assay [14] deals with T4, Streptokinase A (Streptococcus pyogenes serotype M1, UniProt P10520).
T4 sequence (P10520 whole entry): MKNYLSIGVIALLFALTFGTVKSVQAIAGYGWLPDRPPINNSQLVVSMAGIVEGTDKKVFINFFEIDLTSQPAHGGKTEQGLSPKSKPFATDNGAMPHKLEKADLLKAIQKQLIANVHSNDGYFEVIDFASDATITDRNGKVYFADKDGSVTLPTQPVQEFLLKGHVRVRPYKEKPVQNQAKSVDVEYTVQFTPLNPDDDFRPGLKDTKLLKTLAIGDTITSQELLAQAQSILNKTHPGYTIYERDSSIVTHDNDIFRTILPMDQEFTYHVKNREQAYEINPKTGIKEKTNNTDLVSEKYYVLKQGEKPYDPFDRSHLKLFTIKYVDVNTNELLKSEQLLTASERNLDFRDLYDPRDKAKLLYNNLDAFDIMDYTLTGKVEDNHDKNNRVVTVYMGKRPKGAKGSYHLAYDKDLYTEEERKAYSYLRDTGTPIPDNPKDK
In words: viability-normalized secreted streptokinase activity reduction – plasminogen activation absorbance, OD405, dose response (AID 1914).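 Note: secreted streptokinase activity via plasminogen activation per viability signal from cell pellet.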 It counts as functional, Streptococcus pyogenes M1 GAS.

Assay [15] deals with T5, Zinc finger protein mex-5 (Caenorhabditis elegans, UniProt Q9XUB2).
T5 sequence (Q9XUB2 whole entry): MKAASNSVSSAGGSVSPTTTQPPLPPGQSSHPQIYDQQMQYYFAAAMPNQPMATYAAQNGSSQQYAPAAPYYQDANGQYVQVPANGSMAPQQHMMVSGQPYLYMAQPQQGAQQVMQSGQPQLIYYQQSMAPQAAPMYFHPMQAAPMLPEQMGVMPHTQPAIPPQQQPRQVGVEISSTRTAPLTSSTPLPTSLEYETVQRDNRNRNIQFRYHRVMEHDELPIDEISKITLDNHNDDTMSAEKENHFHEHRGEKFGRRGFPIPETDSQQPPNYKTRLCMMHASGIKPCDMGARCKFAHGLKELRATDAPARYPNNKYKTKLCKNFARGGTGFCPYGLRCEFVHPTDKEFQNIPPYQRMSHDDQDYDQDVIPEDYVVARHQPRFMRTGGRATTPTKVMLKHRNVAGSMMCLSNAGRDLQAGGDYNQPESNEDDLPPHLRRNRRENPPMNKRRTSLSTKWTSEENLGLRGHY
In words: potency of MEX-5 RNA-binding blockers – biochemical, C. elegans, fluorescence polarization, dose response (AID 1960).

Assay [16] deals with H9c2. Nature of the assay: cells. Conditions: Rattus norvegicus, H9c2, Myocardium. It counts as functional, cell-based.
Assay [17] deals with T6, Apoptotic protease-activating factor 1 (Homo sapiens, UniProt O14727).
T6 sequence (O14727 whole entry): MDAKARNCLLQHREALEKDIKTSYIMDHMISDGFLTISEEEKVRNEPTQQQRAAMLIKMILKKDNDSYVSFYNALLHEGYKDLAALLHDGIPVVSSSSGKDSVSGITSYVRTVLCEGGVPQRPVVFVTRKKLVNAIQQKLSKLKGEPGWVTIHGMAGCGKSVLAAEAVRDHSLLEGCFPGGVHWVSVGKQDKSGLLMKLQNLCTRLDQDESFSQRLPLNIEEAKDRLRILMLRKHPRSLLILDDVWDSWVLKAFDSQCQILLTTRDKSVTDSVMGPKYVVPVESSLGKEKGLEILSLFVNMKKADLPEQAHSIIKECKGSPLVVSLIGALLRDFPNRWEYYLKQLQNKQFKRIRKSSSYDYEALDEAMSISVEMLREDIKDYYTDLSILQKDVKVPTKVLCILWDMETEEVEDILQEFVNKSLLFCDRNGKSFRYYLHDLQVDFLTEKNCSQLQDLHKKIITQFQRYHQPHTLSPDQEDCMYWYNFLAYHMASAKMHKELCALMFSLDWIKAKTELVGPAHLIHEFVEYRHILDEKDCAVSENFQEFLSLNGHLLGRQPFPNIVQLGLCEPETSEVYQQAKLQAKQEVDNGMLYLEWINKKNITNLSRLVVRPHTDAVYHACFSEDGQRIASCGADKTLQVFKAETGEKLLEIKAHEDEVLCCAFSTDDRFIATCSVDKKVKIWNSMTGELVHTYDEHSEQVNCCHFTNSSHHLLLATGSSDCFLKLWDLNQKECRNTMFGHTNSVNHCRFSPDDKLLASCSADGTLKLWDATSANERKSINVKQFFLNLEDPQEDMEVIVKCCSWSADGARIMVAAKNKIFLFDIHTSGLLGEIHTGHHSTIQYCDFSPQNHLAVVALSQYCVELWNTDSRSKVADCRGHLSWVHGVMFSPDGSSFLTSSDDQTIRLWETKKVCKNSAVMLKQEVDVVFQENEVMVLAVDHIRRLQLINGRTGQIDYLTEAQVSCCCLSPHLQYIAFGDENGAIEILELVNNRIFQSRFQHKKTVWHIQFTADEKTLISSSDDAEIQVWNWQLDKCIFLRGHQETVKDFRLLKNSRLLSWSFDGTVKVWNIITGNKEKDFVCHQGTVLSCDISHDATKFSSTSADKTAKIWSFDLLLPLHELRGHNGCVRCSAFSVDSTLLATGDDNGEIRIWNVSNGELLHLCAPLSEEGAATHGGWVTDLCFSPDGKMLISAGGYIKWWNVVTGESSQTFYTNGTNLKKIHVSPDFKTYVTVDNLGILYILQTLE
It counts as functional.

The target of assay [18] is Ras and Rab interactor 1/Tyrosine-protein kinase ABL1 (Homo sapiens, UniProt P00519+Q13671). It counts as functional.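 Note: biochemical TR-FRET dose-response test measuring inhibition of binding between Rin1 and Abl proteins.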
Ras and Rab interactor 1/Tyrosine-protein kinase ABL1, sequence (P00519 whole entry): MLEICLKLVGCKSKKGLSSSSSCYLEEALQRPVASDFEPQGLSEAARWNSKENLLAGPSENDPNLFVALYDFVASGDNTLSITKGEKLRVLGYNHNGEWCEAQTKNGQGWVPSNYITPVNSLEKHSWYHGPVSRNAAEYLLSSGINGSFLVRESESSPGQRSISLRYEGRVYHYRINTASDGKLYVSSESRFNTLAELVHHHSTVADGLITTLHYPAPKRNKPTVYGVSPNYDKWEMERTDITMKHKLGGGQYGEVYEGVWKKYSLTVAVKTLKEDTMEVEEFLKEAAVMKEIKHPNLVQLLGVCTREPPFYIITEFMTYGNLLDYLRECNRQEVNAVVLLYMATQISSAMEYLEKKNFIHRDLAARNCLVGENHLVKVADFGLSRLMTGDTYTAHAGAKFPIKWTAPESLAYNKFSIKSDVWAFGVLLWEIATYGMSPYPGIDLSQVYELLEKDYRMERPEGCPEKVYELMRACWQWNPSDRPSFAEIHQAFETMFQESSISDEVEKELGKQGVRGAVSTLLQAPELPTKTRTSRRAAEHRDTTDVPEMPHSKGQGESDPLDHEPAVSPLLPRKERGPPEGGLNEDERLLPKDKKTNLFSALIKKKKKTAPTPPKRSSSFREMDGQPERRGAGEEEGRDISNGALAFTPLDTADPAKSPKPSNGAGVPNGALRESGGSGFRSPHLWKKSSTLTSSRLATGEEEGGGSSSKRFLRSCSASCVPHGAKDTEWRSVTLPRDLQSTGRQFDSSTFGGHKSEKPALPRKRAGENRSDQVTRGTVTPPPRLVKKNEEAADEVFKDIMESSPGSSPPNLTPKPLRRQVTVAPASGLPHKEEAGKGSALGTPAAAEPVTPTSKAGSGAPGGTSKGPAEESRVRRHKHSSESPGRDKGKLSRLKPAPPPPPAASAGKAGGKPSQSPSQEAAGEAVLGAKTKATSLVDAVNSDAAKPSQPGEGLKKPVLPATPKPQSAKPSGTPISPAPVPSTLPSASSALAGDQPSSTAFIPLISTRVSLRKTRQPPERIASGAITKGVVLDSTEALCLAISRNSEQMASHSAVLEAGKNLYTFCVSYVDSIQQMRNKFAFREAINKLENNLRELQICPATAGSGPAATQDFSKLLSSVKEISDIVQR
Ras and Rab interactor 1/Tyrosine-protein kinase ABL1, sequence (Q13671 whole entry): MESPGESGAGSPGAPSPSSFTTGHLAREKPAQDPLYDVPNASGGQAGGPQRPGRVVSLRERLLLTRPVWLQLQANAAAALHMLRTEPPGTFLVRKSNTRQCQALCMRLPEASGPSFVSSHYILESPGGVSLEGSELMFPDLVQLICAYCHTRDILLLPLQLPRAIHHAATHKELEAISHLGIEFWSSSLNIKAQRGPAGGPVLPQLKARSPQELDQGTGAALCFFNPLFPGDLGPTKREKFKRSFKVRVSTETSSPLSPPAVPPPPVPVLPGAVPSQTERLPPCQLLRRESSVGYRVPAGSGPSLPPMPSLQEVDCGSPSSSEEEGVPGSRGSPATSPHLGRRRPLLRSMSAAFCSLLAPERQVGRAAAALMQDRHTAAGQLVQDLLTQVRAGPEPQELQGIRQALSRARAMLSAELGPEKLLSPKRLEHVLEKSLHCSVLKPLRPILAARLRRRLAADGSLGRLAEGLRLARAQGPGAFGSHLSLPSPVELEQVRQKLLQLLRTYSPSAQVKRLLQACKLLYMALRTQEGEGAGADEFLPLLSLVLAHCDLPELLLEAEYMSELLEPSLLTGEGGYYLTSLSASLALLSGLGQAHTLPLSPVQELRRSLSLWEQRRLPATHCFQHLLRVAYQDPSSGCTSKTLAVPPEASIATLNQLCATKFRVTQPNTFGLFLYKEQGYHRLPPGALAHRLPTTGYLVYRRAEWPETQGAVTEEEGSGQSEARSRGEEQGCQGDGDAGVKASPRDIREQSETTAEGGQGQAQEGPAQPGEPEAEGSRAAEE

SMILES strings stand for the structures. Calls of active or inactive are those of the source.

One may read the IC50 as the midpoint of a concentration-inhibition curve. For orientation: AC50 means the concentration giving half of the maximal activity seen. As a reminder, the EC50 is the concentration needed to bring the measured effect to its halfway point.

In the case of `COc1ccc(CCn2c(C)cc(C(=O)CCl)c2C)cc1OC`, the IC50 was > 50 µM (inactive) in [1], > 64.6 µM (inactive) in assay [2] and > 64.6 µM (inactive) in [3].

`CC1(C(=O)N/N=C/c2c(F)c(F)c(F)c(F)c2F)CC1(Cl)Cl` (stereo unspecified): the IC50 in assay [2] was > 64.6 µM (inactive); in assay [3], > 7.17 µM (active).

In the case of `O=[N+]([O-])c1ccc(N/N=C/c2c[nH]c3ccccc23)cc1`, the IC50 was 2.05 µM (active) in assay [4]; 10.2 µM (inactive) in assay [5]; > 100 µM (inactive) in [6]; 47.2 µM (inactive) in assay [7]; 1.77 µM (active) in assay [8].

As to `N#C/C(=C(/O)c1ccccc1F)c1nc2cc(C(F)(F)F)ccc2s1`, the IC50 in assay [9] was 10 µM (active); in assay [10], 6.31 µM (active).

On to `Nc1c(C(=O)Nc2nc3ccccc3s2)sc2nc(-c3cccs3)ccc12`, for which the IC50 in assay [5] was 3.93 µM (active); in assay [7], 5.51 µM (active). The AC50 in assay [11] was 7.27 µM (active). Besides, the EC50 in assay [12] was 19.2 µM (inconclusive); in assay [13] it was 109 µM (active); in assay [14], > 150 µM (not active); in [15], > 150 µM (inconclusive).

With `Cc1ccc(-c2nn3c(-c4ccco4)nnc3c3ccccc23)cc1S(=O)(=O)NCC1CCCO1` (stereo unspecified), the IC50 in assay [16] is > 79 µM (inactive); in [17], 5.73 µM (active); in assay [18], > 73.5 µM (inactive).

For the compound `CCN1CCN(c2ncnc3scc(-c4ccc(C)cc4)c23)CC1`, the IC50 is 2.09 µM (active) in assay [9] and 1.5 µM (active) in assay [10].

For `COC(=O)C(CC(C)C)NC(=O)/C=C/c1ccc(Cl)cc1` (stereo unspecified), the IC50 in assay [2] and in assay [3] was > 64.6 µM (inactive) each time.
